Patent publication US10519134B2, “Pyrazole compounds and methods of making and using same” (Lundbeck La Jolla Research Center, Inc., priority 2015, dated 2019)

Columns and labels:
MAGL [1] = molecular target: T1, MAGL (Mus musculus, UniProt O35678); assay: In vitro competitive activity-based protein profiling (mouse), MAGL gel band; format: biochemical; details: for inhibition at 1 µM: read-out: MAGL % inh. 1 μM; for IC50: mouse
T1 construct: Proteomes (mouse brain membrane fraction or cell lysates); from tissue; host or cells: mouse brain membrane fraction (or cell lysates)
T1 sequence (O35678 1-303): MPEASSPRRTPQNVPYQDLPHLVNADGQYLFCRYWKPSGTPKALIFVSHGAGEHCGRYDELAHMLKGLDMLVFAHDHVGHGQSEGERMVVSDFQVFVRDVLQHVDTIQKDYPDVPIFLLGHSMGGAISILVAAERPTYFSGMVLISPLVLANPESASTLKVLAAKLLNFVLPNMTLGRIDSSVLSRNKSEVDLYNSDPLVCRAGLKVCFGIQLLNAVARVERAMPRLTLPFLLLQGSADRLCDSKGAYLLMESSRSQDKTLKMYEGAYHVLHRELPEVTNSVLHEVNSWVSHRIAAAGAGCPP
In short: (§1)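 Mouse brain membrane proteome or cell lysate (1.0 mg/mL protein) preincubated 30 min at 37 °C with varying inhibitor concentrations, then labelled 30 min at 37 °C with FP-Rh or HT-01 probe (50 μM stock). After SDS-PAGE, activity taken from fluorescent intensity of the MAGL and FAAH gel bands.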

FAAH = molecular target: T2, FAAH (Mus musculus, UniProt O08914); assay: In vitro competitive activity-based protein profiling (mouse), FAAH gel band; format: biochemical; details: for inhibition at 1 µM: read-out: FAAH % inh. 1 μM; for IC50: mouse
T2 construct: Proteomes (mouse brain membrane fraction or cell lysates); from tissue; host or cells: mouse brain membrane fraction (or cell lysates)
T2 sequence (O08914 1-579): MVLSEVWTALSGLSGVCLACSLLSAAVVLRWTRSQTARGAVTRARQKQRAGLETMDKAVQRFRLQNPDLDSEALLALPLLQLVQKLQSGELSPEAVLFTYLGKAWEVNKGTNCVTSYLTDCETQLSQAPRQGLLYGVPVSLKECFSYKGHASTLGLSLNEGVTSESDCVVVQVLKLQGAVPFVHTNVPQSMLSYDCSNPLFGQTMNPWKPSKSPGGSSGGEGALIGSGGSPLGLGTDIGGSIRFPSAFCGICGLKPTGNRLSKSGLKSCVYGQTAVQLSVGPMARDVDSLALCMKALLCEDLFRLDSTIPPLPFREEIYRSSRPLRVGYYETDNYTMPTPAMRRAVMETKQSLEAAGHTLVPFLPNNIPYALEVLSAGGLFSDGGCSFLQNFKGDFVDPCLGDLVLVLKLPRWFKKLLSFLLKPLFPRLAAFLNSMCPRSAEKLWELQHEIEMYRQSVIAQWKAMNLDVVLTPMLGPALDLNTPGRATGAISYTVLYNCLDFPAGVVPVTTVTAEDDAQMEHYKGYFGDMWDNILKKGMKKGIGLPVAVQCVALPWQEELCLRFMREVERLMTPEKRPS
In short: as §1

MAGL [2] = molecular target: T3, MAGL (Homo sapiens, UniProt Q99685); assay: In vitro competitive activity-based protein profiling (human), MAGL gel band; format: biochemical
T3 construct: Proteomes (human prefrontal cortex or cell membrane fractions); from tissue; host or cells: human prefrontal cortex (or cell membrane fractions)
T3 sequence (Q99685 1-303): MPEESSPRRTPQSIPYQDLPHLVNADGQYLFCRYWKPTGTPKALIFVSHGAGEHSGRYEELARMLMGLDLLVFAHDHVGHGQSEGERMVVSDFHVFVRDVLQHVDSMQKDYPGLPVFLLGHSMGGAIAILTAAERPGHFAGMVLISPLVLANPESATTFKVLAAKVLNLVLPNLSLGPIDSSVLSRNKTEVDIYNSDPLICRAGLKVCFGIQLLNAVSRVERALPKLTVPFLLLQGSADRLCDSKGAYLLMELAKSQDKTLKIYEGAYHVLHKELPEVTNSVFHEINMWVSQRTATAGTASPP
Procedure: In Vitro Competitive Activity-Based Protein Profiling (Human).
Proteomes (human prefrontal cortex or cell membrane fractions) (50 μL, 1.0-2.0 mg/mL total protein concentration) were preincubated with varying concentrations of inhibitors at 37° C. After 30 min, FP-Rh or JW912 (1.0 μL, 50 μM in DMSO) was added and the mixture was incubated for another 30 min at room temperature. Reactions were quenched with SDS loading buffer (15 μL—4×) and run on SDS-PAGE. Following gel imaging, serine hydrolase activity was determined by measuring fluorescent intensity of gel bands corresponding to MAGL using ImageJ 1.49k software.

MAGL [3] = molecular target: T1, MAGL; assay: Mouse brain proteomes from inhibitor treated mice (oral gavage, sacrificed 4 h after administration); format: in vivo; details: read-out: MAGL % inh. 5 mg/kg
In short: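 Brains were collected 4 h after oral gavage dosing of wild-type C57Bl/6J mice, vehicle polyethylene glycol. Proteomes from these brains were then analyzed for MAGL and other serine hydrolase activity.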

| SMILES | inhibition at 1 µM (MAGL [1]) [%] | inhibition at 1 µM (FAAH) [%] | IC50 (MAGL [2]) [nM] | IC50 (MAGL [1]) [nM] | IC50 (FAAH) [nM] | inhibition at 5 mg/kg (MAGL [3]) [%] |
| --- | --- | --- | --- | --- | --- | --- |
| CC(=O)N1CCC2(CC1)CCN(c1cc(CN3CCN(C(=O)n4ccc(NS(C)(=O)=O)n4)CC3)ccc1Cl)C2 [Example 216, N-(1-(4-(3-(8-acetyl-2,8-diazaspiro[4.5]decan-2-yl)-4-chlorobenzyl)piperazine-1-carbonyl)-1H-pyrazol-3-yl) methanesulfonamide] | ≥ 75 | 0 to 25 | 100 to 1000 | – | – | – |
| CS(=O)(=O)Nc1ccn(C(=O)N2CCN(Cc3ccc(C(F)(F)F)cc3N3CCOCC3)CC2)n1 [Example 140, N-(1-(4-(2-morpholino-4-(trifluoromethyl)benzyl)piperazine-1-carbonyl)-1H-pyrazol-3-yl) methanesulfonamide] | ≥ 75 | 0 to 25 | ≤ 100 | 100 to 1000 | 1000 to 10000 | – |
| CC(=O)Nc1ccn(C(=O)N2CCN(Cc3ccc(C(F)(F)F)cc3C3CCN(CC(=O)O)CC3)CC2)n1 [Example 285, 2-(4-(2-((4-(3-acetamido-1H-pyrazole-1-carbonyl)piperazin-1-yl)methyl)-5-(trifluoromethyl)phenyl)piperidin-1-yl)acetic acid] | ≥ 75 | 0 to 25 | ≤ 100 | – | – | – |
| CC(=O)Nc1ccn(C(=O)N2CCC3(CCCN3Cc3cc(N4C5CCC4COC5)cc(C(F)(F)F)c3)CC2)n1 [Example 62, N-(1-(1-(3-(3-oxa-8-azabicyclo[3.2.1]octan-8-yl)-5-(trifluoromethyl)benzyl)-1,8-diazaspiro[4.5]decane-8-carbonyl)-1H-pyrazol-3-yl)acetamide] | ≥ 75 | 0 to 25 | – | ≤ 100 | 1000 to 10000 | 0 to 25 |
| CC(=O)Nc1ccn(C(=O)N2CCC3(CCCN3Cc3ccc(C(F)(F)F)cc3N3CCC(F)CC3)CC2)n1 [Example 12, N-(1-(1-(2-(4-fluoropiperidin-1-yl)-4-(trifluoromethyl)benzyl)-1,8-diazaspiro[4.5]decane-8-carbonyl)-1H-pyrazol-3-yl)acetamide] | ≥ 75 | 0 to 25 | – | ≤ 100 | 1000 to 10000 | 0 to 25 |
| CC(=O)Nc1ccn(C(=O)N2CCC3(CCCN3Cc3ccc(C(F)(F)F)cc3N3CCOCC3)CC2)n1 [Example 10, N-(1-(1-(2-morpholino-4-(trifluoromethyl)benzyl)-1,8-diazaspiro[4.5]decane-8-carbonyl)-1H-pyrazol-3-yl)acetamide] | ≥ 75 | 0 to 25 | – | ≤ 100 | 1000 to 10000 | 0 to 25 |
| CC(=O)Nc1ccn(C(=O)N2CCC3(CCCN3Cc3ccc(C(F)(F)F)cc3N3CCC4(CCOCC4)C3)CC2)n1 [Example 28, N-(1-(1-(2-(8-oxa-2-azaspiro[4.5]decan-2-yl)-4-(trifluoromethyl)benzyl)-1,8-diazaspiro[4.5]decane-8-carbonyl)-1H-pyrazol-3-yl)acetamide] | ≥ 75 | 0 to 25 | – | ≤ 100 | 1000 to 10000 | 0 to 25 |
| CC(=O)Nc1ccn(C(=O)N2CCC3(CCCN3Cc3ccc(Cl)cc3N3CCC4(CC3)CCN(S(C)(=O)=O)C4)CC2)n1 [Example 37, N-(1-(1-(4-chloro-2-(2-(methylsulfonyl)-2,8-diazaspiro[4.5]decan-8-yl)benzyl)-1,8-diazaspiro[4.5]decane-8-carbonyl)-1H-pyrazol-3-yl)acetamide] | ≥ 75 | 0 to 25 | – | ≤ 100 | 1000 to 10000 | 0 to 25 |

The next lines start with the values.

| inhibition at 1 µM (MAGL [1]) [%] | inhibition at 1 µM (FAAH) [%] | IC50 (MAGL [2]) [nM] | IC50 (MAGL [1]) [nM] | IC50 (FAAH) [nM] | inhibition at 5 mg/kg (MAGL [3]) [%] | SMILES |
| --- | --- | --- | --- | --- | --- | --- |
| ≥ 75 | 0 to 25 | – | ≤ 100 | 1000 to 10000 | 25 to 50 | CC(=O)Nc1ccn(C(=O)N2CCC3(CCCN3Cc3ccc(C(F)(F)F)cc3N3CC4COCC4C3)CC2)n1 (stereo not shown) [Example 32, N-(1-(1-(2-(dihydro-1H-furo[3,4-c]pyrrol-5(3H,6H,6aH)-yl)-4-(trifluoromethyl)benzyl)-1,8-diazaspiro[4.5]decane-8-carbonyl)-1H-pyrazol-3-yl)acetamide] |
| ≥ 75 | 0 to 25 | – | ≤ 100 | 1000 to 10000 | 25 to 50 | CC(=O)Nc1ccn(C(=O)N2CCC3(CCCN3Cc3ccc(N4CCOCC4)c(C(F)(F)F)c3)CC2)n1 [Example 101, N-(1-(1-(4-morpholino-3-(trifluoromethyl)benzyl)-1,8-diazaspiro[4.5]decane-8-carbonyl)-1H-pyrazol-3-yl)acetamide] |
| ≥ 75 | 0 to 25 | – | ≤ 100 | 1000 to 10000 | 0 to 25 | CC(=O)Nc1ccn(C(=O)N2CCC3(CCCN3Cc3cc(Oc4cncnc4)cc(C(F)(F)F)c3)CC2)n1 [Example 84, N-(1-(1-(3-(pyrimidin-5-yloxy)-5-(trifluoromethyl)benzyl)-1,8-diazaspiro[4.5]decane-8-carbonyl)-1H-pyrazol-3-yl)acetamide] |
| ≥ 75 | 0 to 25 | – | ≤ 100 | 1000 to 10000 | 0 to 25 | CC(=O)Nc1ccn(C(=O)N2CCN(Cc3cc(OC4CCN(C5CC5)CC4)cc(C(F)(F)F)c3)CC2)n1 [Example 72, N-(1-(4-(3-(1-cyclopropylpiperidin-4-yloxy)-5-(trifluoromethyl)benzyl)piperazine-1-carbonyl)-1H-pyrazol-3-yl)acetamide] |
| ≥ 75 | 0 to 25 | – | ≤ 100 | 1000 to 10000 | ≥ 75 | CC(=O)Nc1ccn(C(=O)N2CCN(Cc3ccc(Cl)cc3N3CCN(C4CC4)CC3)CC2)n1 [Example 58, N-(1-(4-(4-chloro-2-(4-cyclopropylpiperazin-1-yl)benzyl)piperazine-1-carbonyl)-1H-pyrazol-3-yl)acetamide] |
| ≥ 75 | 0 to 25 | – | ≤ 100 | 1000 to 10000 | 50 to 75 | CC(=O)Nc1ccn(C(=O)N2CCN(Cc3ccc(C(F)(F)F)cc3N3CCOCC3)CC2)n1 [Example 3, N-(1-(4-(2-morpholino-4-(trifluoromethyl)benzyl)piperazine-1-carbonyl)-1H-pyrazol-3-yl)acetamide] |
| ≥ 75 | 0 to 25 | – | ≤ 100 | 1000 to 10000 | 50 to 75 | CS(=O)(=O)Nc1ccn(C(=O)N2CCN(Cc3ccc(C(F)(F)F)cc3N3CC4CCC(C3)O4)CC2)n1 [Example 130, N-(1-(4-(2-(8-oxa-3-azabicyclo[3.2.1]octan-3-yl)-4-(trifluoromethyl)benzyl)piperazine-1-carbonyl)-1H-pyrazol-3-yl) methanesulfonamide] |
| ≥ 75 | 0 to 25 | – | ≤ 100 | 1000 to 10000 | 0 to 25 | CC(=O)Nc1ccn(C(=O)N2CCC3(CCCN3Cc3ccc(C(F)(F)F)cc3Oc3cncnc3)CC2)n1 [Example 83, N-(1-(1-(2-(pyrimidin-5-yloxy)-4-(trifluoromethyl)benzyl)-1,8-diazaspiro[4.5]decane-8-carbonyl)-1H-pyrazol-3-yl)acetamide] |
